Source: patent US7811997B2, “Composition containing total triterpenoid sapogenins extracted from bamboo, and the preparation method and use thereof” (priority 2002, dated 2010)
pIC50: −log10 of the molar value. Where two headings read alike, the source gives them in different places.

What was measured:
Format in all cases: cell-based
A375 (human malanoma) = assay: MTT proliferation inhibition, A375 cells; conditions: A375 cell; for inhibition at 7.5 µM / inhibition at 15 µM / inhibition at 30 µM / inhibition at 60 µM / inhibition at 120 µM / inhibition at 240 µM / inhibition at 480 µM / inhibition at 960 µM / pIC50: Homo sapiens; for inhibition at 7.5 µM: 7.5 μmol/L; for inhibition at 7.5 µM / inhibition at 15 µM / inhibition at 30 µM / inhibition at 60 µM / inhibition at 120 µM / inhibition at 240 µM / inhibition at 480 µM / inhibition at 960 µM: read-out: Inhibitory rate (%); for inhibition at 15 µM: 15 μmol/L; for inhibition at 30 µM: 30 μmol/L; for inhibition at 60 µM: 60 μmol/L; for inhibition at 240 µM: 240 μmol/L; for inhibition at 480 µM: 480 μmol/L; for inhibition at 960 µM: 960 μmol/L; for pIC50: A-375, MTT, Bliss method
Text: (§1) The Silica Gel Column Chromatography and Countercurrent Chromatography preparation techniques were used to obtain Friedelin monomer extracted from EZR2002 for the sake of evaluating its anti-tumor activity further. The purity of this monomer determined by GC-MS analysis was 90.5%.
(§2) A375 (human malanoma), L929 (mouse lung epithelial tumor), Hela (human cervical tumor) and THP-1 (human macrophage tumor) cell lines were used for active filtration test in this experiment. Among these cell lines, A375, L929 and Hela were adherent cells while THP-1 was a kind of suspended cell.
(§3) All cells were maintained in the RPMI-1640 culture medium supplemented with 10% fetal calf serum, penicillin (100 U/mL), streptomycin (100 μg/mL) and 0.2% NaHCO3. These supplements were dissolved in deionized water and 0.22 μm filtration membrane was used for filter sterilization. The fetal calf serum was inactivated 30 min at 56° C. prior to an experiment. Cells were cultured in a humidified incubator of 5% CO2 at 37° C.
(§4) A375, L929 and Hela cells in logarithmic growth phases were seeded at a cell density of approximately 5×10^4 cells/mL in 96 pore plates (100 μL/well). Furthermore, THP-1 cell was seeded at a cell density of approximately 1×10^5 cells/mL because it was smaller than others. Samples were added in suspended cells after culturing 4 h and in adherent cells after culturing 12 h. Friedelin was dissolved in DMSO in advance and then in the culture medium with the ultrasonic treatment, where the final concentration of the solvent in the culture medium was <0.1% (v/v). Sample was added for 7.5, 15, 30, 60, 120, 240, 480 and 960 μmol/L. Each level had four parallel pores and a negative control. The cells were incubated for 24 and 48 h and then 15 μL/well MTT solvent (5 mg/mL) was added.
(§5) The cells were incubated for 48 h, followed by centrifugation at 1500 rpm for 5 min. The supernatant was removed and 150 μL/well DMSO was added, followed by micro-vibrator shocking for 10 min and crystal dissolving completely. The absorbance (OD value) was measured by enzyme-labeled meter at 492 nm. Furthermore, the inhibitory rate of cell proliferation and the IC50 value of friedelin were counted by using Bliss method.
(§6) The de-methyl-cantharidin was taken as the positive control and the inhibitory rate of A375, L929 and Hela cells were measured by adding de-methyl-cantharidin (120 μmol/L) for 24 and 48 h (Table 8). Furthermore, the corresponding data of Friedelin were counted.

[1] = tested on: L929 (mouse lung epithelial tumor); assay: MTT proliferation inhibition, L929 cells; conditions: L929 cell; for Inhibitory rate (%) / inhibition at 120 µM: 120 μmol/L; for inhibition at 7.5 µM / inhibition at 15 µM / inhibition at 30 µM / inhibition at 60 µM / inhibition at 120 µM / inhibition at 240 µM / inhibition at 480 µM / inhibition at 960 µM / pIC50: Mus musculus; for inhibition at 7.5 µM: 7.5 μmol/L; for inhibition at 7.5 µM / inhibition at 15 µM / inhibition at 30 µM / inhibition at 60 µM / inhibition at 120 µM / inhibition at 240 µM / inhibition at 480 µM / inhibition at 960 µM: read-out: Inhibitory rate (%); for inhibition at 15 µM: 15 μmol/L; for inhibition at 30 µM: 30 μmol/L; for inhibition at 60 µM: 60 μmol/L; for inhibition at 240 µM: 240 μmol/L; for inhibition at 480 µM: 480 μmol/L; for inhibition at 960 µM: 960 μmol/L; for pIC50: MTT, Bliss method
Text: as §1, §2, §3, §4, §5, §6

[2] = tested on: Hela (human cervical tumor); assay: MTT proliferation inhibition, Hela cells; conditions: Hela cell; for Inhibitory rate (%) / inhibition at 120 µM: 120 μmol/L; for inhibition at 7.5 µM / inhibition at 15 µM / inhibition at 30 µM / inhibition at 60 µM / inhibition at 120 µM / inhibition at 240 µM / inhibition at 480 µM / inhibition at 960 µM / pIC50: Homo sapiens; for inhibition at 7.5 µM / inhibition at 15 µM / inhibition at 30 µM / inhibition at 60 µM / inhibition at 120 µM / inhibition at 240 µM / inhibition at 480 µM / inhibition at 960 µM: HeLa, read-out: Inhibitory rate (%); for inhibition at 7.5 µM: 7.5 μmol/L; for inhibition at 15 µM: 15 μmol/L; for inhibition at 30 µM: 30 μmol/L; for inhibition at 60 µM: 60 μmol/L; for inhibition at 240 µM: 240 μmol/L; for inhibition at 480 µM: 480 μmol/L; for inhibition at 960 µM: 960 μmol/L; for pIC50: MTT, Bliss method
Text: as §1, §2, §3, §4, §5, §6

[3] = tested on: THP-1 (human macrophage tumor); assay: MTT proliferation inhibition, THP-1 cells; conditions: THP-1 cell; for inhibition at 7.5 µM: 7.5 μmol/L; for inhibition at 7.5 µM / inhibition at 15 µM / inhibition at 30 µM / inhibition at 60 µM / inhibition at 120 µM / inhibition at 240 µM / inhibition at 480 µM / inhibition at 960 µM: read-out: Inhibitory rate (%); for inhibition at 15 µM: 15 μmol/L; for inhibition at 30 µM: 30 μmol/L; for inhibition at 60 µM: 60 μmol/L; for inhibition at 120 µM: 120 μmol/L; for inhibition at 240 µM: 240 μmol/L; for inhibition at 480 µM: 480 μmol/L; for inhibition at 960 µM: 960 μmol/L; for pIC50: MTT, Bliss method
Text: as §1, §2, §3, §4, §5

For C[C@H]1C(=O)CC[C@@H]2[C@]1(C)CC[C@H]1[C@@]2(C)CC[C@@]2(C)[C@@H]3CC(C)(C)CC[C@]3(C)CC[C@]12C [Friedelin, friedelin], the “Inhibitory rate (%)” value (A375 (human malanoma); 48 h, 120 μmol/L) was 88.6%, the inhibition at 7.5 µM (A375 (human malanoma); A-375, 24 h, 24 h) was 0% and the inhibition at 15 µM (A375 (human malanoma); A-375, 24 h, 24 h) was 6.43%. The inhibition at 30 µM (A375 (human malanoma); A-375, 24 h, 24 h) was 0.43%, the inhibition at 60 µM (A375 (human malanoma); A-375, 24 h, 24 h) was 14.1% and the inhibition at 120 µM (A375 (human malanoma); A-375, 24 h, 24 h, 120 μmol/L) was 36.7%. The inhibition at 240 µM (A375 (human malanoma); A-375, 24 h, 24 h) was 44.8%, the inhibition at 480 µM (A375 (human malanoma); A-375, 24 h, 24 h) was 63.3% and the inhibition at 960 µM (A375 (human malanoma); A-375, 24 h, 24 h) was 60.4%. It also gave an inhibition at 7.5 µM (A375 (human malanoma); A-375, 48 h, 48 h) of 0.51%, an inhibition at 15 µM (A375 (human malanoma); A-375, 48 h, 48 h) of 6.29% and an inhibition at 30 µM (A375 (human malanoma); A-375, 48 h, 48 h) of 17.2%. For the same compound, the inhibition at 60 µM (A375 (human malanoma); A-375, 48 h, 48 h) was 44.4%, the inhibition at 120 µM (A375 (human malanoma); A-375, 48 h, 48 h, 120 μmol/L) was 88.6% and the inhibition at 240 µM (A375 (human malanoma); A-375, 48 h, 48 h) was 100%. It also gave an inhibition at 480 µM (A375 (human malanoma); A-375, 48 h, 48 h) of 96.1%, an inhibition at 960 µM (A375 (human malanoma); A-375, 48 h, 48 h) of 89.8% and a pIC50 (A375 (human malanoma); 24 h) of 3.45. For the same compound, the pIC50 (A375 (human malanoma); 48 h) was 4.21, the “Inhibitory rate (%)” value ([1]; 24 h) was 37.6% and the “Inhibitory rate (%)” value ([1]; 48 h) was 81.1%. For the same compound, the inhibition at 7.5 µM ([1]; L929, 24 h, 24 h) was 5.42%, the inhibition at 15 µM ([1]; L929, 24 h, 24 h) was 10.4% and the inhibition at 30 µM ([1]; L929, 24 h, 24 h) was 13.2%. It also gave an inhibition at 60 µM ([1]; L929, 24 h, 24 h) of 22.7%, an inhibition at 120 µM ([1]; L929, 24 h, 24 h) of 37.6% and an inhibition at 240 µM ([1]; L929, 24 h, 24 h) of 52.3%. The inhibition at 480 µM ([1]; L929, 24 h, 24 h) was 48.1%, the inhibition at 960 µM ([1]; L929, 24 h, 24 h) was 38.9% and the inhibition at 7.5 µM ([1]; L929, 48 h, 48 h) was 17.3%. It also gave an inhibition at 15 µM ([1]; L929, 48 h, 48 h) of 21.6%, an inhibition at 30 µM ([1]; L929, 48 h, 48 h) of 38.8% and an inhibition at 60 µM ([1]; L929, 48 h, 48 h) of 66.8%. It also gave an inhibition at 120 µM ([1]; L929, 48 h, 48 h) of 81.1%, an inhibition at 240 µM ([1]; L929, 48 h, 48 h) of 99.5% and an inhibition at 480 µM ([1]; L929, 48 h, 48 h) of 98.2%. The inhibition at 960 µM ([1]; L929, 48 h, 48 h) was 89.9%, the pIC50 ([1]; 24 h) was 3.18 and the pIC50 ([1]; 48 h) was 4.43. For the same compound, the “Inhibitory rate (%)” value ([2]; 24 h) was 71.6%, the “Inhibitory rate (%)” value ([2]; 48 h) was 86.0% and the inhibition at 7.5 µM ([2]; 24 h, 24 h) was 35%. It also gave an inhibition at 15 µM ([2]; 24 h, 24 h) of 34.7%, an inhibition at 30 µM ([2]; 24 h, 24 h) of 33.3% and an inhibition at 60 µM ([2]; 24 h, 24 h) of 43.4%. The inhibition at 120 µM ([2]; 24 h, 24 h) was 71.6%, the inhibition at 240 µM ([2]; 24 h, 24 h) was 88.2% and the inhibition at 480 µM ([2]; 24 h, 24 h) was 88.1%. It also gave an inhibition at 960 µM ([2]; 24 h, 24 h) of 73.8%, an inhibition at 7.5 µM ([2]; 48 h, 48 h) of 20% and an inhibition at 15 µM ([2]; 48 h, 48 h) of 17.2%. It also gave an inhibition at 30 µM ([2]; 48 h, 48 h) of 24.6%, an inhibition at 60 µM ([2]; 48 h, 48 h) of 41.4% and an inhibition at 120 µM ([2]; 48 h, 48 h) of 86%. The inhibition at 240 µM ([2]; 48 h, 48 h) was 99.5%, the inhibition at 480 µM ([2]; 48 h, 48 h) was 98% and the inhibition at 960 µM ([2]; 48 h, 48 h) was 92%. For the same compound, the pIC50 ([2]; 24 h) was 4.21, the pIC50 ([2]; 48 h) was 4.19 and the inhibition at 7.5 µM ([3]; 24 h) was 4.89%. For the same compound, the inhibition at 15 µM ([3]; 24 h) was 0%, the inhibition at 30 µM ([3]; 24 h) was 3.04% and the inhibition at 60 µM ([3]; 24 h) was 45.2%. The inhibition at 120 µM ([3]; 24 h) was 58.8%, the inhibition at 240 µM ([3]; 24 h) was 68.5% and the inhibition at 480 µM ([3]; 24 h) was 74.1%. For the same compound, the inhibition at 960 µM ([3]; 24 h) was 70.8%, the pIC50 ([3]; 24 h) was 4.07 and the inhibition at 7.5 µM ([3]; 48 h) was 8.6%. It also gave an inhibition at 15 µM ([3]; 48 h) of 0%, an inhibition at 30 µM ([3]; 48 h) of 7.57% and an inhibition at 60 µM ([3]; 48 h) of 52.6%. It also gave an inhibition at 120 µM ([3]; 48 h) of 77.3%, an inhibition at 240 µM ([3]; 48 h) of 95% and an inhibition at 480 µM ([3]; 48 h) of 92.9%. It also gave an inhibition at 960 µM ([3]; 48 h) of 82.5% and a pIC50 ([3]; 48 h) of 4.24.
